Here are results for two molecules from patent US9427398B2, “Parenteral solutions containing metolazone” (Academic Pharmaceuticals Incorporated, priority 2008, dated 2016).

One data set has as its system Sprague-Dawley male rats. Nature of the data set: Diuretic action of parenteral formulations, intraperitoneal administration in rats (24 h urine volume and Na+). It counts as in vivo, rat. Conditions: for urine output: 24 h urine, n=6, mean±SD; for urine volume voided over 24 hours compared with placebo: intraperitoneal, furosemide 2, 4, 6 mg/kg (P≦0.01), metolazone 2 mg/kg in 2 different formulations. How it is done: Sprague-Dawley male rats (400 to 500 g) were used for the in vivo experiments. The rats were housed at a controlled temperature (22° C.), fed regularly and had free access to water. Rats were divided into 7 groups with 6 animals per group for the purposes of the study. The rats were deprived of food and water for 24 hours before beginning the study. After this fasting period, normal saline ([…]) was given by oral route. […] All rats were placed in metabolic cages for urine collection. Urine was collected for 24 hours after injection, and the volume measured and the (Na^+) concentration in urine were determined using an ion-specific electrode method, NOVA CRT (NOVA Biomedical, Waltham, Mass.) All data are presented as mean±SD of n observations. For statistical comparison, one-way analysis or variance ANOVA or Student t test was employed. A two-sided P value≦0.05 was considered significant.

For data set [1] the following is noted: cited from earlier work.

For the molecule `Cc1ccccc1N1C(=O)c2cc(S(N)(=O)=O)c(Cl)cc2NC1C` (stereo not shown) [Metolazone, 7 chloro-1,2,3,4-tetrahydro-2-methyl-3-(-2-methylphenyl)-4-oxo-6-quinazoline sulfonamide], in the data set on Sprague-Dawley male rats (2 mg/kg intraperitoneally), the urine output was 16 ± 3 mL/day. Besides, the “urine volume voided over 24 hours compared with placebo” value in the data set on Sprague-Dawley male rats is listed as “greater in each instance”. Moreover, the solubility in water result in data set [1] is reported as “sparingly soluble”.
For `NS(=O)(=O)c1cc(C(=O)O)c(NCc2ccco2)cc1Cl` [Furosemide, furosemide], the urine output in the data set on Sprague-Dawley male rats (2 mg/kg intraperitoneally) was 9 ± 1 mL/day; in the data set with Sprague-Dawley male rats (4 mg/kg intraperitoneally), 14 ± 2 mL/day; with Sprague-Dawley male rats (6 mg/kg intraperitoneally), 17 ± 2 mL/day. The “urine volume voided over 24 hours compared with placebo” value in the data set with Sprague-Dawley male rats is “significantly greater”.
